Key:
[1] = system: CD19 CAR-T cells co-cultured with Raji or K562/CD19+ target cells; assay: CD19 CAR-T cell viability and effector function in the presence of GSI; format: cell-based, human
Method: (A) CD19 staining of K562 CD19^+ and Raji cells that were cultured with or without GSI for ±12-16 h. Isotype control shown as gray line.
(C) CD19 CAR-T cells were co-cultured with K562/CD19 target cells in media containing various concentrations of RO4929097. RO4929097 inhibits CD19 CAR-T cell effector function at concentrations of 3 μM when co-cultured, as determined by measuring IL-2 (upper panel) and IFNγ (lower panel) production.
(D) IL-2 production by CD19 CAR-T cells cultured with target cells in the presence of increasing concentrations of GSI RO4929097.
(E) IL-2 production by CD19 CAR-T cells cultured with target cells (“K562 CD19”) or control cells (“KS562 BCMA”) in the presence of increasing concentrations of GSI RO4929097. Cells were administered the indicated amounts of the GSI and then washed (empty bars) or not (filled bars).
(F) Data from another experiment showing IL-2 production by CD19 CAR-T cells after overnight co-culture with K562 BCMA^+ or K562 CD19^+ cells following pre-incubation with varying concentrations of GSI. After washing, GSI was either added back in (+/+) or left out of the co-culture (+/−) to assess the reversibility of cytokine production.
(G) Specific lysis, by CD19 CAR-T cells, of the indicated target or control cells in the presence of GSI RO4929097.
(H) Proliferation of CD19 CAR-T cells cultured with CD19-expressing target cells in the presence or absence of GSI or with control cells in the absence of GSI. Cells were stained with CFSE and proliferation was measured by flow cytometry.
(I) Graphic representation of the number of cell divisions of CD19 CAR-T cells in the presence of the indicated concentrations of GSI RO4929097. The width of the horizontal bars represents the proportion of CAR-T cells in culture that divided the indicated number of generations (i.e., 5, 4, 3, 2, 1, or 0 generations) over the course of the experiment.
[…] Cell counts (CD8 staining) during expansion of CD19-specific CAR-T cells with CD19^+ TM LCL cells and exogenous IL-2 in the absence of GSI (circle) or the presence of GSI at 0.5 μM (square) or 5 μM (triangle).
(K) Cell counts of CD19-specific CAR-T cells (CD4:CD8 (1:1) expanded with CD19^+ TM. LCL cells in the absence or presence of GSI as indicated, but without the addition of exogenous IL-2.
(L) IFN-γ concentrations in supernatants of GSI-expanded anti-CD19 CAR CD8^+ T cells following re-stimulation with K562 cells (no antigen), K562 CD19^+ cells, or Raji cells.
(M, N) Production of IFN-γ (M) and IL-2 (N) by the CD4:CD8 anti-CD19 CAR-T cell mixture following re-stimulation with the indicated cell lines in the absence of GSI or the presence of either 0.5 μM or 5 μM GSI.
Without wishing to be bound by theory, a potential caveat of using GSI to augment BCMA on myeloma cells to improve CAR-T cell recognition is that high concentrations of GSI may inhibit T-cell signaling and effector functions. See Eagar et al., Immunity 20(4):407, 2004. To evaluate potential effects of GSI on CAR T cells in a setting where target ligand expression remains stable, CD19 CAR-T cells were co-cultured with Raji or K562/CD19^+ target cells in the presence of GSI (0.01 μM to 100 μM) and measured viability and effector function. Over this concentration range there was no effect on CD19 antigen expression (FIG. 5A) or on CAR-T cell viability after 24 hours (FIG. 5B). […] However, the ability of the CD19 CAR-T cells to specifically kill target cells was not affected by GSI concentration (FIG. 5G). […] To further investigate the dosage effect of GSI on CAR-T cell division, a dose titration of GSI RO4929097 was added to co-cultures of CD19 CAR-T and target cells.

[2] = system: MM.1R myeloma cells in NSG mice; assay: GSI activity in disseminated MM.1R xenograft model (surface BCMA, serum sBCMA); format: in vivo, mouse
Method: (A) Experimental scheme for a disseminated xenograft murine myeloma model. NSG mice were irradiated (275 rad) to facilitate tumor engraftment and received human MM tumor cells (5×10^6 MM.1R) followed by GSI treatment (30 mg/kg). […] (B) Fold change in surface BCMA expression on myeloma cells in mice euthanized at the indicated timepoints following the second GSI administration. (C) Levels of sBCMA in sera from mouse sacrificed at the indicated timepoints after administration of RO4929097. To investigate whether the sBCMA-inhibiting effects of GSI RO4929097 described in Example 4 could be replicated in vivo, a mouse xenograft model of human MM was tested as illustrated in FIG. 6A. Briefly, immunodeficient NOD/SCID gamma (NSG) mice (The Jackson Laboratory) received sublethal irradiation (275 rad) at day −1, followed by 5×10^6 MM.1R cells the next day (day 0). GSI RO4929097 (30 mg/kg) was administered by oral gavage at day 19 and day 20. Mice were sacrificed at different times after the second gavage administration of the GSI and blood and bone marrow samples were taken for analysis. GSI dosing was followed by a rapid increase (>3-fold by 4 hours post-second gavage) in surface BCMA expression on the tumor cells (FIG. 6B) and a concurrent decrease in sBCMA (FIG. 6C).

[3] = expanded in 5 μM, 0.5 μM or no GSI

CC(C)(C(=O)NCC(F)(F)C(F)(F)F)C(=O)N[C@@H]1C(=O)Nc2ccccc2-c2ccccc21 [RO4929097]
proliferation of CD19 CAR-T cells in response to target cells ([1]; 10 μM GSI vs absence of GSI): less effectively
expansion of CD19 CAR-T cells ([1]; 8 days in culture with or without exogenous IL-2, GSI 0.5 or 5 μM): did not show a decrease in expansion
CD19 antigen expression on target cells ([1]; GSI 0.01 μM to 100 μM): no effect
CAR-T cell viability ([1]; GSI 0.01 μM to 100 μM, 24 hours): no effect
T cell function (cytokine production, cell lysis activity, proliferation) ([1]; GSI at therapeutic levels): does not affect T cell function
IFN-γ production on re-stimulation after expansion in GSI [1, 3]: did not show a significant difference
IL-2 production on re-stimulation after expansion in GSI [1, 3]: not markedly different
CAR-T cell division ([1]; non-therapeutic dose (10 μM)): detectably inhibit proliferation
specific killing of target cells by CD19 CAR-T cells ([1]; range of GSI concentrations): not affected
CAR-T cell division ([1]; therapeutic doses of GSI (0.01 μM-1 μM)): essentially unaffected or only slightly affected
time after second gavage within which observed effects were generally reduced ([2]; 30 mg/kg oral gavage): ≤ 48 h
sBCMA in sera ([2]; 30 mg/kg oral gavage day 19 and 20): decrease
increase in surface BCMA expression on tumor cells ([2]; 30 mg/kg oral gavage day 19 and 20, 4 hours post-second gavage): > 3 fold
